Activity calls are given as the source filed them.
What was measured:
[1] = target: Nuclear receptor subfamily 5 group A member 2 (Homo sapiens, UniProt O00482); format: functional, cell-based;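 note: HEK293T cells transfected with LRH-1 and a StAR promoter luciferase reporter; potency for inhibitors that lower LRH-1 driven reporter light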
Steroidogenic factor 1 = Steroidogenic factor 1 (Homo sapiens, UniProt Q13285); test: Counterscreen for inverse agonists of the liver receptor homolog-1 (LRH-1; NR5A2): Luminescence-based cell-based high throughput dose response assay to identify inverse agonists of the Steroidogenic Factor 1 Nuclear Receptor (SF1; NR5A1).; format: functional
Sequence of Steroidogenic factor 1 (Q13285 whole entry): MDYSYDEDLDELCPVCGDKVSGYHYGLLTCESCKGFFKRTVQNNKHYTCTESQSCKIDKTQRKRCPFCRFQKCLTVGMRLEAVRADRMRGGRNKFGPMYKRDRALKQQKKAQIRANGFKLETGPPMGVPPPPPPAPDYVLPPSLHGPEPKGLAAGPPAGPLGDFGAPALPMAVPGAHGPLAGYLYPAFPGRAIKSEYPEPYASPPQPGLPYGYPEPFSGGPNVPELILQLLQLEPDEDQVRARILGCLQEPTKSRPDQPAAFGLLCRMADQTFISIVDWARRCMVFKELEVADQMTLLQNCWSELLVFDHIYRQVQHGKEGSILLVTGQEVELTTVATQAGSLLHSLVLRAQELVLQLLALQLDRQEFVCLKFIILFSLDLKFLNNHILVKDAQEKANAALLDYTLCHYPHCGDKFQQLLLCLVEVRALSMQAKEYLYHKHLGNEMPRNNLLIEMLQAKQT

[2] = nonselective StAR promoter luciferase inhibitors – cell-based, luminescence, luciferase reporter, counter-screen for LRH-1 inverse agonist project, dose response (AID 651969); format: functional
Protein Wnt-3a = Protein Wnt-3a (Mus musculus, UniProt P27467); test: SAR analysis of small molecule antagonists of Gli-SUFU in a Wnt3a luminescent reporter assay.; format: functional
Sequence of Protein Wnt-3a (P27467 whole entry): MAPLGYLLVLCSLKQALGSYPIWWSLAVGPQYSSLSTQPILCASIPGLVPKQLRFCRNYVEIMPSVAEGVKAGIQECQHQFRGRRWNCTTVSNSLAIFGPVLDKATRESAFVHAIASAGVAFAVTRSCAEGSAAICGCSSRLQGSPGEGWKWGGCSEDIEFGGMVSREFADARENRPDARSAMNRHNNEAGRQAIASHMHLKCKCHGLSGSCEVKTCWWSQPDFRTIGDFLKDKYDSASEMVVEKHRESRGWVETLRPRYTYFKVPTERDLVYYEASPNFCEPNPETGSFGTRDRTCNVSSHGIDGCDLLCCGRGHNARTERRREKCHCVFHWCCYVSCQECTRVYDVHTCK

P388/ADR = test: cells; format: functional; settings: Mus musculus
SN12K1 = test: cells; format: functional; settings: Homo sapiens
P388 = test: cells; format: functional; settings: Mus musculus
[3] = target: Photoreceptor-specific nuclear receptor (Homo sapiens, UniProt Q9Y5X4); format: functional, cell-based;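 note: CHO-S cells with Gal4-NCOR and VP16-NR2E3 two-hybrid luciferase reporter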
Sequence of Photoreceptor-specific nuclear receptor (Q9Y5X4 whole entry, the tested form may be a part): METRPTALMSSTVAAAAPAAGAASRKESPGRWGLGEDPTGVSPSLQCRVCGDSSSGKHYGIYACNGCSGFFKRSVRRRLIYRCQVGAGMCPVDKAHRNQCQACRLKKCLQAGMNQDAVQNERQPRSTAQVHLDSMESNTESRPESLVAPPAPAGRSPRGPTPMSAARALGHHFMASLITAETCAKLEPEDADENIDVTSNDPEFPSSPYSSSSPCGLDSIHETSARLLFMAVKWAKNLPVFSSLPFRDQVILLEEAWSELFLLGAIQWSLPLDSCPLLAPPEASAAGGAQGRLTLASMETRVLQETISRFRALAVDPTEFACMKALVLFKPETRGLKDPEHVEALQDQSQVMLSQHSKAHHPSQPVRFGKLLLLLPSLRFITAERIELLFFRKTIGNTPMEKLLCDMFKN

[4] = target: T1, DNA repair protein RAD52 homolog (Homo sapiens, UniProt P43351); format: functional, biochemical
T1 sequence (P43351 whole entry): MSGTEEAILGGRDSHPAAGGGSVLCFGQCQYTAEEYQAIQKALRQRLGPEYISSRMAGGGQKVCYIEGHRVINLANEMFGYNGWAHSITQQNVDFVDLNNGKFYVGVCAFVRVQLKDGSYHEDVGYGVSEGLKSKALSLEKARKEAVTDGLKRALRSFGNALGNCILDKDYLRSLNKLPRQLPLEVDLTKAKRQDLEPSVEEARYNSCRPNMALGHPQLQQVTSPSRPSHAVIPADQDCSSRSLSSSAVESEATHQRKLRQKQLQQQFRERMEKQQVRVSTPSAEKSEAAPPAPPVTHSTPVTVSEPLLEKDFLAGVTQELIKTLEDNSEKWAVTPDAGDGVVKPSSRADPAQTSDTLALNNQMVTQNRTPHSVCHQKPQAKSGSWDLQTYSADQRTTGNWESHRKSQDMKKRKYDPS

cells [5] = format: functional, cell-based
[6] = target: T2, Trace amine-associated receptor 1 (Homo sapiens, UniProt Q96RJ0); test: Fluorescence-based cell-based high throughput dose response assay to identify agonists of the human trace amine associated receptor 1 (TAAR1).; format: functional
T2 sequence (Q96RJ0 whole entry): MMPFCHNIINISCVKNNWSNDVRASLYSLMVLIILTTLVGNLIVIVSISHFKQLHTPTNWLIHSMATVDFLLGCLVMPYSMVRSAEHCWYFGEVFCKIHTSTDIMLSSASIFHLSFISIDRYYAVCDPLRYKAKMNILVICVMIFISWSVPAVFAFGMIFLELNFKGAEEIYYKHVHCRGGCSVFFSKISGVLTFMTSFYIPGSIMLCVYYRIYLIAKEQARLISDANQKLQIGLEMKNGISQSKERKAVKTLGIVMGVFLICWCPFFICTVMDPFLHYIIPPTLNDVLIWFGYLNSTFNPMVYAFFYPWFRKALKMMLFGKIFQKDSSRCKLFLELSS

[7] = target: T2, Trace amine-associated receptor 1; test: Counterscreen for agonists of the human trace amine associated receptor 1 (hTAAR1): Fluorescence-based cell-based high throughput dose response assay to identify hTAAR1 agonist that also desensitize TAAR1 receptor response.; format: functional
cells [8] = format: functional, cell-based; remark: listed apart in the source
Interleukin-8 = target: T3, Interleukin-8 (Homo sapiens, UniProt P10145); test: Dose Response confirmation of uHTS small molecule hits for cystic fibrosis induced NFkb Inhibitors in a PAF-induced IL8 counterscreen.; format: functional; settings: read-out: IC50_Mean
T3 sequence (P10145 whole entry): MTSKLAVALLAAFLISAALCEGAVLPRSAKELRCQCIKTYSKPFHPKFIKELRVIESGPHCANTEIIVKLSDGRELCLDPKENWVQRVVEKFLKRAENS

[9] = THP-1 cell cytotoxicity, dose response, cytotoxicity control for non-replicating M. tuberculosis project (AID 489025); format: functional
Nonstructural protein 1 = Nonstructural protein 1 (Influenza A virus, UniProt Q194T2); format: functional, Influenza A virus (A/California/07/2009(H1N1))
Sequence of Nonstructural protein 1 (Q194T2 whole entry): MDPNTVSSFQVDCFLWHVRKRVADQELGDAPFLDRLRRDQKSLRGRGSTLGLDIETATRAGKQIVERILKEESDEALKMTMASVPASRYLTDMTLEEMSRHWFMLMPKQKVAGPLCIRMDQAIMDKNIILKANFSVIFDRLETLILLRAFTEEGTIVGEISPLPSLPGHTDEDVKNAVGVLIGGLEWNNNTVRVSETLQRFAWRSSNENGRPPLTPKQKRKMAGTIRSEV

Albumin = Albumin (Bos taurus, UniProt P02769); test: Counterscreen for inhibitors of T-cell receptor (TCR)-CD3 interaction: Fluorescence-based biochemical high throughput dose response assay to identify inhibitors of T-cell receptor (TCR)-CD3 interaction using a TAMRA-labeled BSA probe.; format: functional
Sequence of Albumin (P02769 whole entry): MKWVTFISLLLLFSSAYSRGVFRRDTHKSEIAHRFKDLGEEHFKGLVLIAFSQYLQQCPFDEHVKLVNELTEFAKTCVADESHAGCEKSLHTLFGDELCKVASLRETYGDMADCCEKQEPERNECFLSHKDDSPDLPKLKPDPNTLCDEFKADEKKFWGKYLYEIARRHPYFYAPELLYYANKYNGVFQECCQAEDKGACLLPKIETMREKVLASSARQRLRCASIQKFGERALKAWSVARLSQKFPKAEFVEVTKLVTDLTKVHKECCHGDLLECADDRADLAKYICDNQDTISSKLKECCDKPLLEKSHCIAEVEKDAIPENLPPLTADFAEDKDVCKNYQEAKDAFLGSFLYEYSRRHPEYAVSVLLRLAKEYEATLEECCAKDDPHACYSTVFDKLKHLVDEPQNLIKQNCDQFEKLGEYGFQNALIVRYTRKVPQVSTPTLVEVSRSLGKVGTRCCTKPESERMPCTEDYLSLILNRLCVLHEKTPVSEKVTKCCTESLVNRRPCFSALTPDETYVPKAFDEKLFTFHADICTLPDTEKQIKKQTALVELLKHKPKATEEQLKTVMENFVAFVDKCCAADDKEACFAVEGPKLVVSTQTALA

Genome polyprotein = Genome polyprotein (dengue virus type 2, UniProt P29990); test: flavivirus cap methylation enzyme inhibition – biochemical, confirmation dose response, primary screen (AID 588689); format: functional
Sequence of Genome polyprotein (P29990 2492-3391 limits assumed): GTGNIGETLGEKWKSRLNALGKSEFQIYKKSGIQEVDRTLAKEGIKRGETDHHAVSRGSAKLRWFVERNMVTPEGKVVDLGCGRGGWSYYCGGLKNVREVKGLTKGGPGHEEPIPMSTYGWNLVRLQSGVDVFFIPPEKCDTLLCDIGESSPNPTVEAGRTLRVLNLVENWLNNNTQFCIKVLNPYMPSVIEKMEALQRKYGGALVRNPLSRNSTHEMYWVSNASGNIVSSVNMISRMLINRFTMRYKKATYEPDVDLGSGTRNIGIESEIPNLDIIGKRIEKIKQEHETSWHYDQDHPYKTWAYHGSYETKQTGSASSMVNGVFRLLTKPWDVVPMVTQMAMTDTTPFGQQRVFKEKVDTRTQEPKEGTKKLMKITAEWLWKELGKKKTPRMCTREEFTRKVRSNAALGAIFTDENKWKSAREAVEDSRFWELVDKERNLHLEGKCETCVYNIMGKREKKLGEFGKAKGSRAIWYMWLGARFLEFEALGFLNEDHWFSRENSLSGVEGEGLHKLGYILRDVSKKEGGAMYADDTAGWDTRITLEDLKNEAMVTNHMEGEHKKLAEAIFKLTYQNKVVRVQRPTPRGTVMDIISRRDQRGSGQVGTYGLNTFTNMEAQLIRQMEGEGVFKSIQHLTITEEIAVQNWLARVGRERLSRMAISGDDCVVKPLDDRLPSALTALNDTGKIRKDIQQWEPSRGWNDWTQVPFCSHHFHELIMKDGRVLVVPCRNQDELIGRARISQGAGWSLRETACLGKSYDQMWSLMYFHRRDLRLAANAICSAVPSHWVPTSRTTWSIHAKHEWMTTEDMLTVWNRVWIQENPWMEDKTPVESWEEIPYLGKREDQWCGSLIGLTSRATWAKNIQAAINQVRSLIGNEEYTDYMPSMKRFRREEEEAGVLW

[10] = target: T4, Mitochondrial peptide methionine sulfoxide reductase (Bos taurus, UniProt P54149); format: functional;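 note: absorbance read-out, biochemical high-throughput dose-response screen for MsrA inhibitors, confirmatory; recombinant bovine MsrA coupled to E. coli TrxB with NADPH and selenocystamine; potency is for inhibitors of MsrA activity on DMSO substrate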
T4 sequence (P54149 whole entry): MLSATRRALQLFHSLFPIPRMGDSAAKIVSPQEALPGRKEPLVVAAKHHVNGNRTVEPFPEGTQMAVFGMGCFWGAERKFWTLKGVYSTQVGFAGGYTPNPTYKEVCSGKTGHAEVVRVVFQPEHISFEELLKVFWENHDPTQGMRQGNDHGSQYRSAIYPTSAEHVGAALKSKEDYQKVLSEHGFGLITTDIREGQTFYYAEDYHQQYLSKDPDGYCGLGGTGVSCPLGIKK

[11] = target: T5, Tyrosyl-DNA phosphodiesterase 2 (Homo sapiens, UniProt O95551); test: potency against TDP2 phosphodiesterase activity – biochemical, epi absorbance, IC50, dose response (AID 743297)
T5 sequence (O95551 whole entry): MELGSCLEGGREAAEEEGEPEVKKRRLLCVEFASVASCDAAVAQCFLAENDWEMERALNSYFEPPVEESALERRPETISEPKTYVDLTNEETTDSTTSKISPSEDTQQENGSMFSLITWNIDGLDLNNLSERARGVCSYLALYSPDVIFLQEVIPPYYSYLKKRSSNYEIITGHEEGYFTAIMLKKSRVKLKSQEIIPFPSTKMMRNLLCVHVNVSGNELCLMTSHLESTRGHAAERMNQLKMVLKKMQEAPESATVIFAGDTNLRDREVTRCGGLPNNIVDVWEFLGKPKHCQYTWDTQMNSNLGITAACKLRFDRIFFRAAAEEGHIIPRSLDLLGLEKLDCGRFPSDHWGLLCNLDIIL

[12] = Trypanosoma cruzi growth suppression in host cells – NIH3T3 host cells, beta-gal luminescence, confirmation (AID 2044); format: functional, cell-based;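 note: intracellular parasites grown in NIH/3T3 mouse fibroblasts as host cells; luminescent beta-galactosidase reporter signal from transgenic T. cruzi replicating inside host cells; inhibitors lower the luminescence signal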
[13] = NIH3T3 cell viability loss – ATP luminescence, mouse fibroblasts, counter-screen, dose response (AID 2010); format: functional, cell-based;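 note: cells exposed to compound for about 90 hours before reading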
Cytochrome P450 2C9 = Cytochrome P450 2C9 (Homo sapiens, UniProt P11712)
Sequence of Cytochrome P450 2C9 (P11712 whole entry, the tested form may be a part): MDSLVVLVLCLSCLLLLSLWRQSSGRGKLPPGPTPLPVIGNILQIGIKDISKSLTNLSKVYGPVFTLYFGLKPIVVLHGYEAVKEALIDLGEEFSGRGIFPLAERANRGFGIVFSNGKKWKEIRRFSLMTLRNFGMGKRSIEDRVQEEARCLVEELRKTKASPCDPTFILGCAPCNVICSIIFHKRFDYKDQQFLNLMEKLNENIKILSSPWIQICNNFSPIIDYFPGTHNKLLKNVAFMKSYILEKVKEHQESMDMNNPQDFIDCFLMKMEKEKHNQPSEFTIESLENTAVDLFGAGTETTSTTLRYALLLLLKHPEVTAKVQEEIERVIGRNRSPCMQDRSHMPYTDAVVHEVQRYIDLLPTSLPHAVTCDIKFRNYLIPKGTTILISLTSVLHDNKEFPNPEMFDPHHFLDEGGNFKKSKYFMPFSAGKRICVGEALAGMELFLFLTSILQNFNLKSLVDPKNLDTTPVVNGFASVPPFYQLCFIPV

[14] = blockers of HIV-1 envelope-mediated cell-cell fusion – cherry-pick, dose response (AID 652057); format: functional, cell-based
[15] = viability loss in CEM21 cells – cell-based, CellTiter-Glo luminescence, cherry-picked, cytotoxicity control for viral fusion inhibitor project, dose response (AID 652042); format: functional;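 note: potency for signal decrease meaning cytotoxicity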
[16] = blockers of HIV-1 ZM109 envelope-driven cell-cell fusion – HeLa effector, CEM target cells, luciferase, cherry-pick, dose response (AID 652058); format: functional, cell-based;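 note: luciferase signal from HIV-1 Env mediated cell-cell fusion of effector and target cells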
[17] = off-target signal loss in HeLa-CEM21 co-culture – HeLa F-luc CTL cells, cherry-picked, counter-screen for HIV-1 Env fusion inhibitor project, dose response (AID 652040); format: functional, cell-based;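 note: potency for signal decrease marking cytotoxic or nonspecific inhibition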
[18] = HIV-1 AD8 envelope cell-cell fusion blockers – cherry-pick, dose response (AID 652062); format: functional, cell-based;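 note: luciferase signal from cell-cell fusion driven by HIV-1 clade B AD8 Env; potency is for inhibitors of fusion seen as a drop in luminescence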
Large T antigen = Large T antigen (Simian virus 40, UniProt P03070); format: functional, Betapolyomavirus macacae;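 note: Confirmatory-stage PubChem screen for compounds that inhibit SV40 T antigen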
Sequence of Large T antigen (P03070 whole entry): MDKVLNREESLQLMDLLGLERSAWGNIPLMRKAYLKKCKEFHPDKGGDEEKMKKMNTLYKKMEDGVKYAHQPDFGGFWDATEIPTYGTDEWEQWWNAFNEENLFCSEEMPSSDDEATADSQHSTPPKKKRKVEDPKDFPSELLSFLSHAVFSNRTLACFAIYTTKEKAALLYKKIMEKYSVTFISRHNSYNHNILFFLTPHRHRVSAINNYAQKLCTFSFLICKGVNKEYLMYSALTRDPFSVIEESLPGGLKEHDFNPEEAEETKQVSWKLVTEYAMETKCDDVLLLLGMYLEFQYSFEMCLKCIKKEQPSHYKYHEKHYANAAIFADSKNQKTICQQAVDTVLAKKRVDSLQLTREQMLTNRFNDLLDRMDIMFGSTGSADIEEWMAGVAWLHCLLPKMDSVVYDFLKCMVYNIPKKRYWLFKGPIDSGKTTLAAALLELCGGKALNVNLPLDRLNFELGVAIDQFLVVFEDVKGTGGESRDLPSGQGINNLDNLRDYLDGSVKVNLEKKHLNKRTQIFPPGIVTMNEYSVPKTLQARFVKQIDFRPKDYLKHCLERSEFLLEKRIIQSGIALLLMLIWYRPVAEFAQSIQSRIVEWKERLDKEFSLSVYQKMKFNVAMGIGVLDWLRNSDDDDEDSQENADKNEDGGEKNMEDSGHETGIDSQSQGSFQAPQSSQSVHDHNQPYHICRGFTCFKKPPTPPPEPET

[19] = viability loss in HeLa cells – cytotoxicity control for MgcRacGAP inhibitor project, dose response (AID 624300); format: functional
[20] = target: T6, Rac GTPase-activating protein 1 (Homo sapiens, UniProt Q9H0H5); test: blockers of MgcRacGAP-driven Rac1 GTP hydrolysis – biochemical, ADP Hunter fluorescence, primary and confirmatory, confirmation (AID 624330); format: functional
T6 sequence (Q9H0H5 whole entry): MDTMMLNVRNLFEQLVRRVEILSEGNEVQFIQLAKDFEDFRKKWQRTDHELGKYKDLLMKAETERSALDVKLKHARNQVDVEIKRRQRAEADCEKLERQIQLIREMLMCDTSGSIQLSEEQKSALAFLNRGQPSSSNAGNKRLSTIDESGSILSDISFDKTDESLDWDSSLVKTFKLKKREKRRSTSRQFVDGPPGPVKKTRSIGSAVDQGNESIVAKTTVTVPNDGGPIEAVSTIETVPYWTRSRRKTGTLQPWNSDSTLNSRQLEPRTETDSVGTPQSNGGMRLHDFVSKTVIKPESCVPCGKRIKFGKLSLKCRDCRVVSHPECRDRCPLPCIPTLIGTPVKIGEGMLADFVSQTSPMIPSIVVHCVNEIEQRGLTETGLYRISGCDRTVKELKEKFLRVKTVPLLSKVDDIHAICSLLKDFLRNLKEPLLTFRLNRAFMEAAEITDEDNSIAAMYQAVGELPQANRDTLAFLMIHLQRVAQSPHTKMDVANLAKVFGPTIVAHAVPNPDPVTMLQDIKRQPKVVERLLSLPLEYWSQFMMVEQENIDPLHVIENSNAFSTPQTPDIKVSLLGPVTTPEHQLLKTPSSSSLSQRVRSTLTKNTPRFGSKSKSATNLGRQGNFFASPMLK

Sequence of Nuclear receptor subfamily 5 group A member 2 (O00482 whole entry): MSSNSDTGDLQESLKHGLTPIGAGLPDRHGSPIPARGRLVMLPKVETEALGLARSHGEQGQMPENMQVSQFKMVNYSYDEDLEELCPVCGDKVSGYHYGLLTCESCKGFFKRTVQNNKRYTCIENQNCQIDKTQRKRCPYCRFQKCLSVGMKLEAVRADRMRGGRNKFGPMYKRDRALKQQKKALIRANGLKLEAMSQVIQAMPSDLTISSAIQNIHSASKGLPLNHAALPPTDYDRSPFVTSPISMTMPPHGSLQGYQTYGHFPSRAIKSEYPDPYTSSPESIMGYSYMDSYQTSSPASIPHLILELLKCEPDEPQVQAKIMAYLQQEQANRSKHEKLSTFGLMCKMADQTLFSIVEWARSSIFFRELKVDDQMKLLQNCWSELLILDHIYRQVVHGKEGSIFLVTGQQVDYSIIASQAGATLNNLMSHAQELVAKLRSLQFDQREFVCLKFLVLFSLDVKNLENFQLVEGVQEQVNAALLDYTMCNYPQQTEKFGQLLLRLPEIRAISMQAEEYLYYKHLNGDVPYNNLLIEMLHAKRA

SMILES: CC(=O)Nc1ccc(Nc2cc([N+](=O)[O-])cc(Cl)[n+]2[O-])cc1
- IC50 [1]: 5.74 µM (active)
- IC50 (Steroidogenic factor 1): 1.56 µM (active)
- IC50 [2]: 35.9 µM (inactive)

SMILES: O=C(Nc1cc(N2CCSCC2)ncn1)c1ccccc1
- IC50 (Protein Wnt-3a): > 21.8 µM (inactive)

SMILES: COc1cc2c(oc(=O)c3cc(C)cc(OC)c32)c2c(C3OC(C)C(O)C(C)(O)C3O)ccc(O)c12 (stereo not given)
- GI50 (P388/ADR): 0.219 µM (active)
- GI50 (SN12K1): 0.349 µM (active)
- GI50 (P388): 0.171 µM (active)
- IC50 [3]: 12.7 µM (inactive)
- AC50 [4]: 18.8 µM (active)

SMILES: COc1cc(CN2CCc3ccccc3C2)cc([N+](=O)[O-])c1O
- IC50 (cells [5]): > 29.9 µM (inactive)
- EC50 [6]: 1.01 µM (active)
- IC50 [7]: 6.77 µM (active)
- EC50 (cells [8]): > 29.9 µM (inactive)

SMILES: NC(=S)N1OC[C@@H]2COc3ccc4ccccc4c3[C@@H]21
- IC50 (Interleukin-8): 8.34 µM (active)

SMILES: O=C(Nc1cc(N2CCOCC2)ncn1)c1ccccc1
- IC50 (Protein Wnt-3a): > 21.8 µM (inactive)

SMILES: CCOc1ccc(/C=N/CC(O)c2ccccc2)cc1 (stereo not given)
- IC50 (cells [5]): > 29.9 µM (inactive)
- EC50 [6]: 0.769 µM (active)
- IC50 [7]: 3.27 µM (active)
- EC50 (cells [8]): > 29.9 µM (inactive)

SMILES: O=C(N/N=C/c1cccc([N+](=O)[O-])c1O)c1cccs1
- CC50 [9]: 32.4 µM (active)
- IC50 (Nonstructural protein 1): 7.41 µM (active)
- IC50 (Albumin): > 94.1 µM (inactive)

SMILES: O=C(O)c1ccc(NC2=C/C(=N/S(=O)(=O)c3cccs3)c3ccccc3C2=O)cc1
- IC50 (Genome polyprotein): 58.1 µM (active)
- IC50 [10]: 4.82 µM (active)
- IC50 [11]: 0.817 µM (active)

SMILES: Cc1nc(NC(=O)c2ccccc2)cc(N2CCCCC2)n1
- IC50 (Protein Wnt-3a): > 21.8 µM (inactive)

SMILES: CC1CCN(S(=O)(=O)c2ccc(NC(=O)Cn3nnc(-c4ccccc4F)n3)cc2)CC1
- EC50 [12]: 2.23 µM (active)
- EC50 [13]: > 60 µM (not active)
- IC50 (Albumin): > 94.1 µM (inactive)

SMILES: COc1ccc(C(=O)NNC(=O)CSc2nnc(COc3ccc4ccccc4c3)n2C)cc1
- IC50 (cells [5]): > 29.9 µM (inactive)
- EC50 [6]: > 29.9 µM (inactive)
- IC50 [7]: > 29.9 µM (inactive)
- EC50 (cells [8]): > 29.9 µM (inactive)
- AC50 (Cytochrome P450 2C9): inconclusive

SMILES: O=C(Cc1ccc(S(=O)(=O)N2CCCC2)s1)Nc1cccc([N+](=O)[O-])c1
- IC50 [1]: 13 µM (inactive)
- IC50 (Steroidogenic factor 1): 6.79 µM (active)
- IC50 [2]: 35.9 µM (inactive)

SMILES: CC(Oc1ccc(S(=O)(=O)N2CCCC2)cc1[N+](=O)[O-])C(=O)NC(C)c1ccccc1 (stereo not given)
- IC50 [1]: 11.8 µM (inactive)
- IC50 (Steroidogenic factor 1): 7.26 µM (active)
- IC50 [2]: 20.1 µM (inactive)

SMILES: CN(C)C(=O)c1cccc(-c2cnc3sc(NCc4ccc5c(c4)OCO5)nn23)c1
- IC50 (Interleukin-8): 11.8 µM (inactive)
- AC50 [14]: 4.47 µM (active)
- AC50 [15]: 66.1 µM (active)
- AC50 [16]: 4.54 µM (active)
- AC50 [17]: 3.03 µM (active)
- AC50 [18]: 4.18 µM (active)

SMILES: COc1cc(/C=C2\SC(=N)NC2=O)ccc1O
- IC50 (Large T antigen): 5.02 µM (active)
- CC50 [19]: 69.1 µM (active)
- IC50 [20]: 11.8 µM (active)

SMILES: COC(=O)Nc1ccc(S(=O)(=O)NNC(=O)c2c(O)c3ccccc3[nH]c2=O)cc1
- IC50 (Albumin): > 94.1 µM (inactive)
